Reference: patent US20120029187A1, “HALOALKYLSULFONANILIDE DERIVATIVE” (Nissan Chemical Industries, Ltd., priority 2009, published 2012)

Experiments:
Format in all cases: in vivo
common chickweed [1] = test: Test Example 3: herbicidal effects in soil treatment; details: dose 3.2 g/a
How it was run: (§1)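 Seeds were sown in sterilized diluvial soil and covered with about 1.5 cm of soil. Compounds, formulated as emulsifiable concentrates and diluted with water, were sprayed evenly over the soil surface at set doses in g/a. Herbicidal effect was scored on a rating scale three weeks later.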

posumbu knotweed [2] = test: as above; details: dose 3.2 g/a
How it was run: as §1

water foxtail [3] = test: as above; details: dose 3.2 g/a
How it was run: as §1

giant foxtail [4] = test: as above; details: dose 3.2 g/a
How it was run: as §1

barnyardgrass [5] = test: as above; details: dose 3.2 g/a
How it was run: as §1

common lambsquater [6] = test: as above; details: dose 3.2 g/a
How it was run: as §1

common ragweed [7] = test: as above; details: dose 3.2 g/a
How it was run: as §1

large crabgrass [8] = test: as above; details: dose 3.2 g/a
How it was run: as §1

Italian ryegrass [9] = test: as above; details: dose 3.2 g/a
How it was run: as §1

velvetleaf [10] = test: as above; details: dose 3.2 g/a
How it was run: as §1

redroot pigweed [11] = test: as above; details: dose 3.2 g/a
How it was run: as §1

transplanted rice = test: Test Example 1: preemergence treatment under submerged conditions, effect on crop; details: dose 2.52 g/a
How it was run: (§2)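 Score 0–5 by mortality (5: ≥90%; 0: <5%), read 3 weeks post-application. Paddy-type cups: alluvial soil under 4 cm water, weeds seeded plus transplanted 2.5-leaf rice; diluted EC dosed onto water surface same day as sowing, g/a basis; greenhouse 25 to 30° C.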

common chickweed [12] = test: Test Example 4: herbicidal effect in foliage treatment; details: dose 3.2 g/a, three weeks after application
How it was run: (§3)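 Herbicidal effect was rated on an evaluation scale three weeks after treatment. Plants had been raised 14 days at 25 to 30° C in sterilized diluvial soil, then received foliar sprays of emulsifiable concentrate diluted in water at predetermined doses expressed as g per are.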

posumbu knotweed [13] = test: as above; details: dose 3.2 g/a, three weeks after application
How it was run: as §3

water foxtail [14] = test: as above; details: dose 3.2 g/a, three weeks after application
How it was run: as §3

giant foxtail [15] = test: as above; details: dose 3.2 g/a, three weeks after application
How it was run: as §3

barnyardgrass [16] = test: as above; details: dose 3.2 g/a, three weeks after application
How it was run: as §3

common lambsquater [17] = test: as above; details: dose 3.2 g/a, three weeks after application
How it was run: as §3

common ragweed [18] = test: as above; details: dose 3.2 g/a, three weeks after application
How it was run: as §3

beadstraw = test: as above; details: dose 3.2 g/a, three weeks after application
How it was run: as §3

large crabgrass [19] = test: as above; details: dose 3.2 g/a, three weeks after application
How it was run: as §3

Italian ryegrass [20] = test: as above; details: dose 3.2 g/a, three weeks after application
How it was run: as §3

velvetleaf [21] = test: as above; details: dose 3.2 g/a, three weeks after application
How it was run: as §3

redroot pigweed [22] = test: as above; details: dose 3.2 g/a, three weeks after application
How it was run: as §3

ducksalad [23] = test: Test Example 2: herbicidal effects during the vegetation period under submerged conditions; details: treatment during the vegetation period under submerged conditions; dose 2.52 g/a
How it was run: (§4)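 Barnyardgrass, bulrush and ducksalad were co-sown in alluvial soil flooded to 4 cm and grown in a greenhouse at 25 to 30° C. At the 1- or 2-leaf stage, water-diluted emulsifiable concentrates went onto the water surface at set doses (g/a). Herbicidal effect was scored three weeks later on a graded scale.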

barnyardgrass [24] = test: as above; details: treatment during the vegetation period under submerged conditions; dose 2.52 g/a
How it was run: as §4

bulrush [25] = test: as above; details: treatment during the vegetation period under submerged conditions; dose 2.52 g/a
How it was run: as §4

ducksalad [26] = test: Test Example 1: herbicidal effects in preemergence treatment under submerged conditions; details: dose 2.52 g/a
How it was run: as §2

barnyardgrass [27] = test: as above; details: dose 2.52 g/a
How it was run: as §2

bulrush [28] = test: as above; details: dose 2.52 g/a
How it was run: as §2

SMILES	N: common chickweed, herbicidal effect (evaluation scale 0-5) (common chickweed [1])	M: posumbu knotweed, herbicidal effect (evaluation scale 0-5) (posumbu knotweed [2])	G: water foxtail, herbicidal effect (evaluation scale 0-5) (water foxtail [3])	E: giant foxtail, herbicidal effect (evaluation scale 0-5) (giant foxtail [4])	A: barnyardgrass, herbicidal effect (evaluation scale 0-5) (barnyardgrass [5])	L: common lambsquater, herbicidal effect (evaluation scale 0-5) (common lambsquater [6])	J: common ragweed, herbicidal effect (evaluation scale 0-5) (common ragweed [7])	D: large crabgrass, herbicidal effect (evaluation scale 0-5) (large crabgrass [8])	H: Italian ryegrass, herbicidal effect (evaluation scale 0-5) (Italian ryegrass [9])	I: velvetleaf, herbicidal effect (evaluation scale 0-5) (velvetleaf [10])	K: redroot pigweed, herbicidal effect (evaluation scale 0-5) (redroot pigweed [11])	a: transplanted rice, effect on crop (evaluation scale 0-5) (transplanted rice)	N: common chickweed, herbicidal effect (common chickweed [12])	M: posumbu knotweed, herbicidal effect (posumbu knotweed [13])	G: water foxtail, herbicidal effect (water foxtail [14])	E: giant foxtail, herbicidal effect (giant foxtail [15])	A: barnyardgrass, herbicidal effect (barnyardgrass [16])	L: common lambsquater, herbicidal effect (common lambsquater [17])	J: common ragweed, herbicidal effect (common ragweed [18])	O: beadstraw, herbicidal effect (beadstraw)	also measured
CCOC(=O)N(c1ccccc1CN1COC2(CCCCC2)CC1=O)S(=O)(=O)C(F)(F)F [II-68]	4 (mortality of at least 70% and less than 90%)	5 (mortality of 90% or above (nearly complete death))	5 (mortality of 90% or above (nearly complete death))	5 (mortality of 90% or above (nearly complete death))	5 (mortality of 90% or above (nearly complete death))	4 (mortality of at least 70% and less than 90%)	2 (mortality of at least 20% and less than 40%)	5 (mortality of 90% or above (nearly complete death))	5 (mortality of 90% or above (nearly complete death))	5 (mortality of 90% or above (nearly complete death))	3 (mortality of at least 40% and less than 70%)	3 (mortality of at least 40% and less than 70%)	4 (mortality of at least 70% and less than 90%)	2 (mortality of at least 20% and less than 40%)	3 (mortality of at least 40% and less than 70%)	5 (mortality of 90% or above (nearly complete death))	5 (mortality of 90% or above (nearly complete death))	4 (mortality of at least 70% and less than 90%)	3 (mortality of at least 40% and less than 70%)	3 (mortality of at least 40% and less than 70%)	D: large crabgrass, herbicidal effect (large crabgrass [19]): 4 (mortality of at least 70% and less than 90%); H: Italian ryegrass, herbicidal effect (Italian ryegrass [20]): 1 (mortality of at least 5% and less than 20%); I: velvetleaf, herbicidal effect (velvetleaf [21]): 4 (mortality of at least 70% and less than 90%); K: redroot pigweed, herbicidal effect (redroot pigweed [22]): 2 (mortality of at least 20% and less than 40%); C: ducksalad, herbicidal effect (evaluation scale 0-5) (ducksalad [23]): 5 (mortality of 90% or above (nearly complete death)); A: barnyardgrass, herbicidal effect (evaluation scale 0-5) (barnyardgrass [24]): 5 (mortality of 90% or above (nearly complete death)); B: bulrush, herbicidal effect (evaluation scale 0-5) (bulrush [25]): 5 (mortality of 90% or above (nearly complete death)); C: ducksalad, herbicidal effect (evaluation scale 0-5) (ducksalad [26]): 5 (mortality of 90% or above (nearly complete death)); A: barnyardgrass, herbicidal effect (evaluation scale 0-5) (barnyardgrass [27]): 5 (mortality of 90% or above (nearly complete death)); B: bulrush, herbicidal effect (evaluation scale 0-5) (bulrush [28]): 5 (mortality of 90% or above (nearly complete death))
COCC1(C)CC(=O)N(Cc2ccccc2NS(=O)(=O)C(F)(F)F)CO1 (stereo not drawn) [II-54]	5 (mortality of 90% or above (nearly complete death))	5 (mortality of 90% or above (nearly complete death))	5 (mortality of 90% or above (nearly complete death))	5 (mortality of 90% or above (nearly complete death))	5 (mortality of 90% or above (nearly complete death))	3 (mortality of at least 40% and less than 70%)	4 (mortality of at least 70% and less than 90%)	5 (mortality of 90% or above (nearly complete death))	5 (mortality of 90% or above (nearly complete death))	5 (mortality of 90% or above (nearly complete death))	3 (mortality of at least 40% and less than 70%)	0 (mortality of less than 5% (almost ineffective))	4 (mortality of at least 70% and less than 90%)	2 (mortality of at least 20% and less than 40%)	5 (mortality of 90% or above (nearly complete death))	5 (mortality of 90% or above (nearly complete death))	5 (mortality of 90% or above (nearly complete death))	2 (mortality of at least 20% and less than 40%)	4 (mortality of at least 70% and less than 90%)	4 (mortality of at least 70% and less than 90%)	D: large crabgrass, herbicidal effect (large crabgrass [19]): 4 (mortality of at least 70% and less than 90%); H: Italian ryegrass, herbicidal effect (Italian ryegrass [20]): 5 (mortality of 90% or above (nearly complete death)); I: velvetleaf, herbicidal effect (velvetleaf [21]): 5 (mortality of 90% or above (nearly complete death)); K: redroot pigweed, herbicidal effect (redroot pigweed [22]): 1 (mortality of at least 5% and less than 20%); C: ducksalad, herbicidal effect (evaluation scale 0-5) (ducksalad [23]): 5 (mortality of 90% or above (nearly complete death)); A: barnyardgrass, herbicidal effect (evaluation scale 0-5) (barnyardgrass [24]): 5 (mortality of 90% or above (nearly complete death)); B: bulrush, herbicidal effect (evaluation scale 0-5) (bulrush [25]): 5 (mortality of 90% or above (nearly complete death)); C: ducksalad, herbicidal effect (evaluation scale 0-5) (ducksalad [26]): 5 (mortality of 90% or above (nearly complete death)); A: barnyardgrass, herbicidal effect (evaluation scale 0-5) (barnyardgrass [27]): 5 (mortality of 90% or above (nearly complete death)); B: bulrush, herbicidal effect (evaluation scale 0-5) (bulrush [28]): 5 (mortality of 90% or above (nearly complete death))
